Data: PubChem BioAssay AID1224915

Tested on: MDA-MB-231 antiproliferation
Experiment: PubChem AID 1224915

COc1cc(-c2nn(CCN3CCC(N(C)C)CC3)c3ncnc(N)c23)ccc1NC(=O)OC(C)(C)C
EC50: 9 nM
